Laboratory results: US20250304623A1, “PEPTIDES FOR INTRACELLULAR DELIVERY” (UNIVERSIDADE DE SANTIAGO DE COMPOSTELA, priority 2022, published 2025)
*: point of attachment. NHNH2 = NN*

How the values were obtained:
Type in all cases: cell-based
[1] = tested on: Hela cells expressing EGFP; assay: Cas9-RNP delivery against EGFP (gene editing, plate reader), HeLa; details: for % GFP silencing due to gene editing (Cas9-RNP): HeLa
Procedure: (§1) To generate an EGFP expressing HeLa cell line, HeLa cells were transfected with EGFP pDNA (pEGFP-C1, Clontech) and stable transfectants were selected with 400 μg/mL of G-418 (Millipore). Green clones were selected by epifluorescence microscopy and tested for EGFP expression stability through several passages. […] All other EGFP-expressing cell lines were obtained in a similar way from parent non-EGFP-expressing cell lines.
(§2) Cells expressing EGFP were seeded in a 96 well plate the day before the experiment at a concentration of 50,000 cell/mL (100 μL/w) in DMEM+10% FBS+1% Gln-Abt. For robotic library screening, the delivery of Cas9-RNP against EGFP (RNP designed to knock-out the gene encoding for the enhanced green fluorescent protein (EGFP)) was performed. For RNP assembly, 9.2 μL of crRNA and 9.2 μL of tracrRNA were mixed in 211.6 μL of Nuclease-Free Duplex Buffer (IDT), incubated for 5 min at 95° C. and slowly cooled at rt (see I. Lostalé-Seijo, et al. Peptide/Cas9 nanostructures for ribonucleoprotein cell membrane transport and gene edition, Chem. Sci., 2017). Cas9 protein was dissolved in DMEM at a final concentration of 4 μM and equal volumes of the RNA complex and Cas9 were mixed and incubated for 5 min at rt. 75 μL of the corresponding amphiphile concentrations were added to 5 μL of RNP at 2 μM. The mixture was shaken for 30 min at room temperature before the addition to the cells. The cell medium was aspirated, and cells were washed twice with PBS. Cells were covered with 30 μL of DMEM and 20 μL of the RNP/amphiphile complexes were added to the cells (final peptide concentrations=2.5, 5 and 10 μM; final Cas9-RNP concentration=50 nM) and incubated for 4 h. After the incubation, the medium was replaced by 100 μL of fresh DMEM supplemented with 10% FBS. The total EGFP fluorescence was quantified after 72 h in a plate reader (FIG. 2, Table 1 (right) and Table 6). All experiments were done in triplicate.
(§3) Tables 1-7: RLuc (pDNA) or EGFP (mRNA) expression levels were normalized to Lipofectamine reagents (value=1) and expressed as fold-times signal increase. In the case of siRNA, the siRNA treated cells fluorescence was compared with siMOCK control fluorescence, while Cas9-RNP mediated knockout was measured against the fluorescence of untreated cells. In both siRNA and Cas9-RNP, values are expressed as % fluorescence reduction. Amphiphile concentration was 5 μM in all cases. All experiments were performed in triplicate.
(§4) Tables 26-31 show the mean (triplicates) percentage of gene editing, accounted by GFP fluorescence intensity decrease (% of reduction), measured after the transfection of Cas9-RNP by different amphiphiles at different concentrations in a variety of cell lines. Background values, accounted by untreated control cells, were subtracted for processing.

[2] = tested on: Hek293 cells expressing EGFP; assay: Cas9-RNP delivery against EGFP (gene editing, plate reader), Hek293
Procedure: as §1
as §2, with “triplicate. […]” for “triplicate.”
as §4

[3] = tested on: HCT116 cells; assay: EGFP mRNA delivery, robotic library screening, HCT116
Procedure: Cells were seeded in a 96 well plate the day before the experiment at a concentration of 50,000 cell/mL (100 μL/w) in DMEM+10% FBS+1% Gln-Abt. For robotic library screening, the delivery of EGFP-mRNA (from TriLink, fully substituted with 5-methoxyuridine, capped and polyadenylated; TriLink, CleanCap® EGFP mRNA (5moU), ref. L-7201) in six different cell lines was performed. Amphiphilic molecule stock solutions were prepared in DMSO as described above and diluted in DMEM to afford a range of concentrations. The solutions of EGFP-mRNA/amphiphilic molecule complexes were freshly prepared prior to the transfection experiments. 35 μL of the corresponding amphiphile were added to 10 μL of a solution of EGFP-mRNA at 10 ng/μL in DMEM. The mixture was shaken for 30 min at room temperature before the addition to the cells. The cell medium was aspirated, and cells were washed with PBS twice. Cells were covered with 39 μL of DMEM and 11 μL of the complex's solution were added to the cells and incubated for 4 h (final concentration of peptide=2.5, 5 and 10 μM; final concentration of EGFP-mRNA=25 ng/well). After the incubation, the medium was replaced by 100 μL of fresh DMEM supplemented with 10% FBS. The total EGFP fluorescence was quantified after 72 h in a well plate reader. Amphiphile transfection efficiency was compared and normalized to Lipofectamine® MessengerMax efficiency (value of 1 in Tables 1-5 and 7; double underlined numbers). All experiments were done in triplicate.
as §3
Tables 14-19 show the mean (triplicates) fluorescence intensity measured after the transfection of EGFP mRNA by different amphiphiles at different concentrations in a variety of cell lines. Background fluorescence values, accounted by untreated control cells, were subtracted for processing.

[4] = Petroselinyl, 10 μM, Hela cells
[5] = Petroselinyl, 15 μM, Hela cells

Substance	percentage of gene editing, GFP fluorescence intensity decrease (% of reduction) ([1]; Dodecanal, 5 μM, Hela cells)	percentage of gene editing, GFP fluorescence intensity decrease (% of reduction) ([1]; Dodecanal, 10 μM, HeLa cells)	percentage of gene editing, GFP fluorescence intensity decrease (% of reduction) ([1]; Myristoleyl, 5 μM, HeLa cells)	percentage of gene editing, GFP fluorescence intensity decrease (% of reduction) ([1]; Myristoleyl, 10 μM, HeLa cells)	percentage of gene editing, GFP fluorescence intensity decrease (% of reduction) ([1]; Oleyl, 10 μM, HeLa cells)	percentage of gene editing, GFP fluorescence intensity decrease (% of reduction) ([1]; Palmitoleyl, 5 μM, HeLa cells)	percentage of gene editing, GFP fluorescence intensity decrease (% of reduction) ([1]; Palmitoleyl, 10 μM, HeLa cells)	percentage of gene editing, GFP fluorescence intensity decrease (% of reduction) ([1]; Petroselinyl, 5 μM, HeLa cells)	percentage of gene editing, GFP fluorescence intensity decrease (% of reduction) [1, 4]	percentage of gene editing, GFP fluorescence intensity decrease (% of reduction) [1, 5]	percentage of gene editing, GFP fluorescence intensity decrease (% of reduction) ([2]; Dodecanal, 5 μM)	percentage of gene editing, GFP fluorescence intensity decrease (% of reduction) ([2]; Oleyl, 10 μM)	percentage of gene editing, GFP fluorescence intensity decrease (% of reduction) ([2]; Palmitoleyl, 5 μM)	percentage of gene editing, GFP fluorescence intensity decrease (% of reduction) ([2]; Palmitoleyl, 10 μM)	percentage of gene editing, GFP fluorescence intensity decrease (% of reduction) ([2]; Palmitoleyl, 15 μM)	percentage of gene editing, GFP fluorescence intensity decrease (% of reduction) ([2]; Petroselinyl, 5 μM)	percentage of gene editing, GFP fluorescence intensity decrease (% of reduction) ([2]; Petroselinyl, 10 μM)	percentage of gene editing, GFP fluorescence intensity decrease (% of reduction) ([2]; Petroselinyl, 15 μM)	mean fluorescence intensity (EGFP mRNA) ([3]; Myristoleyl, 2.5 μM)	mean fluorescence intensity (EGFP mRNA) ([3]; Myristoleyl, 5 μM)	other results
Ac-RHLK*RLK*RRLK*RL-NH2 (Ac-RHLKRLKRRLKRL-NH2; not fully specified (residues 4, 7, 11); printed as Ac-RHLK*RLK*RRLK*RL-NH2; also: linker on K* not given here) [13(Arg-His)]	37%	78%	48%	85%	73%	48%	73%	23%	69%	80%	21%	−8%	1%	5%	−26%	8%	−19%	−44%	2974	4154	% GFP silencing due to gene editing (Cas9-RNP) ([1]; 5 μM, Ole tail): 73%; % GFP silencing due to gene editing (Cas9-RNP) ([1]; 5 μM, Pal tail): 73%; percentage of gene editing, GFP fluorescence intensity decrease (% of reduction) ([1]; Oleyl, 5 μM, HeLa cells): 46%; percentage of gene editing, GFP fluorescence intensity decrease (% of reduction) ([1]; Palmitoleyl, 15 μM, Hela cells): 78%; percentage of gene editing, GFP fluorescence intensity decrease (% of reduction) ([2]; Myristoleyl, 15 μM): −75%; percentage of gene editing, GFP fluorescence intensity decrease (% of reduction) ([2]; Oleyl, 15 μM): −8%; mean fluorescence intensity (EGFP mRNA) ([3]; Myristoleyl, 10 μM): 4744; mean fluorescence intensity (EGFP mRNA) ([3]; Palmitoleyl, 2.5 μM): 4249; mean fluorescence intensity (EGFP mRNA) ([3]; Petroselinyl, 2.5 μM): 1065; mean fluorescence intensity (EGFP mRNA) ([3]; Petroselinyl, 5 μM): 490; mean fluorescence intensity (EGFP mRNA) ([3]; Petroselinyl, 10 μM): 61
Ac-RK*LRK*K*L-NH2 (Ac-RK(NHNH2)LRK(NHNH2)K(NHNH2)L-NH2; not fully specified; printed as Ac-RK*LRK*K*L-NH2; also: K*2,K*5,K*6: native or modified lysine (ε-amide to a linker)) [Peptide 7.3]	10%	2%	24%	27%	−9%	20%	13%	6%	11%	33%	−11%	−34%	23%	−1%	3%	29%	34%	23%	35826	2060	percentage of gene editing, GFP fluorescence intensity decrease (% of reduction) ([1]; Dodecanal, 15 μM, Hela cells): −3%; percentage of gene editing, GFP fluorescence intensity decrease (% of reduction) ([1]; Myristoleyl, 15 μM, Hela cells): 25%; percentage of gene editing, GFP fluorescence intensity decrease (% of reduction) ([2]; Dodecanal, 15 μM): −15%; percentage of gene editing, GFP fluorescence intensity decrease (% of reduction) ([2]; Myristoleyl, 5 μM): −20%; mean fluorescence intensity (EGFP mRNA) ([3]; Dodecanal, 2.5 μM): 5668; mean fluorescence intensity (EGFP mRNA) ([3]; Dodecanal, 5 μM): 6749; mean fluorescence intensity (EGFP mRNA) ([3]; Dodecanal, 10 μM): 1139; mean fluorescence intensity (EGFP mRNA) ([3]; Petroselinyl, 2.5 μM): 6670; mean fluorescence intensity (EGFP mRNA) ([3]; Petroselinyl, 5 μM): 1464; mean fluorescence intensity (EGFP mRNA) ([3]; Petroselinyl, 10 μM): 1093
Ac-RK*LRRK*L-NH2 (Ac-RK(NHNH2)LRRK(NHNH2)L-NH2; not fully specified; printed as Ac-RK*LRRK*L-NH2; also: K*2,K*6: native or modified lysine (ε-amide to a linker)) [Peptide 7.2]	6%	−22%	−7%	−18%							−21%								4952	1710	percentage of gene editing, GFP fluorescence intensity decrease (% of reduction) ([1]; Dodecanal, 15 μM, Hela cells): −26%; percentage of gene editing, GFP fluorescence intensity decrease (% of reduction) ([1]; Myristoleyl, 15 μM, Hela cells): −6%; percentage of gene editing, GFP fluorescence intensity decrease (% of reduction) ([2]; Dodecanal, 15 μM): −29%; percentage of gene editing, GFP fluorescence intensity decrease (% of reduction) ([2]; Myristoleyl, 5 μM): −23%; mean fluorescence intensity (EGFP mRNA) ([3]; Dodecanal, 2.5 μM): 613; mean fluorescence intensity (EGFP mRNA) ([3]; Dodecanal, 5 μM): 672; mean fluorescence intensity (EGFP mRNA) ([3]; Dodecanal, 10 μM): 1077
